Measured values: ChEMBL document CHEMBL1201862, “PubChem BioAssay data set” (2004)
Values belong to the compound of their own block, whether it stands above or below them. Calls of active or inactive are those of the source.

Legend:
[1] = HEK293T cytotoxicity, dose response, cytotoxicity control for miR-122 modulator project, cell-based, inhibitor set, cherry-pick, set 2 (AID 720697); type: functional
[2] = human group III sPLA2 inhibitors, dose response, biochemical, QFRET, IC50 (AID 743457);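 note: green fluorescence rise as the enzyme cleaves BODIPY PC-A2 in liposomes; potency for inhibition of the enzyme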
[3] = biological target: FAD-linked sulfhydryl oxidase ALR (Homo sapiens, UniProt P55789); assay: inhibitors of human ALR sulfhydryl oxidase, dose response, biochemical, H2O2 detection, luminescence, cherry-pick (AID 493248)
Chain of FAD-linked sulfhydryl oxidase ALR (P55789 whole entry): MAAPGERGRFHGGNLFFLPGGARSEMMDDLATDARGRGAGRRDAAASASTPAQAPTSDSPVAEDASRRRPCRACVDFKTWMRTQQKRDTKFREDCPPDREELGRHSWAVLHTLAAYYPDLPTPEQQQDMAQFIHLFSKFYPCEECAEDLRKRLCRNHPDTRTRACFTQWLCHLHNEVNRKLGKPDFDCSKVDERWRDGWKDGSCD

[4] = biological target: T1, Rac GTPase-activating protein 1 (Homo sapiens, UniProt Q9H0H5); assay: MgcRacGAP GTPase-activating activity inhibitors, confirmation, biochemical, ADP Hunter fluorescence, primary and confirmatory (AID 624330); type: functional
T1 sequence (Q9H0H5 whole entry): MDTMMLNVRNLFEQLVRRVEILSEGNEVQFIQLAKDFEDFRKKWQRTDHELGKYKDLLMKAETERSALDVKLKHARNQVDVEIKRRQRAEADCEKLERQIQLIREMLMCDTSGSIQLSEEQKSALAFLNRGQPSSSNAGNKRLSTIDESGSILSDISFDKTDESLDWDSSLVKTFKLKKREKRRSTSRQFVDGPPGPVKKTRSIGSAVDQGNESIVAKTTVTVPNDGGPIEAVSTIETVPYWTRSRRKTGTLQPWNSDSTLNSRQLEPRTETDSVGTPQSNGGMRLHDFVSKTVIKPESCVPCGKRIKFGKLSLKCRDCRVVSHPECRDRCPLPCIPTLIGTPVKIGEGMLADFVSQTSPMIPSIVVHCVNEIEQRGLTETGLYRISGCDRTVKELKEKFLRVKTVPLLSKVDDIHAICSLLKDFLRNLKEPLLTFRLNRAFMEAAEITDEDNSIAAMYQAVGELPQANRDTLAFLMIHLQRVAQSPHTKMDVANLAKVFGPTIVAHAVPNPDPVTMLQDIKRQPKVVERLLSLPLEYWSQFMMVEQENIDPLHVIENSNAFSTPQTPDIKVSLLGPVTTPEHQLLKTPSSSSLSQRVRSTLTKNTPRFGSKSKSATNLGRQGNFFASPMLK

Cytochrome P450 2C19 = Cytochrome P450 2C19 (Homo sapiens, UniProt P33261); assay: Cytochrome panel assay with activity outcomes. Panel member name: p450-cyp2c19 Compounds with AC50 equal or less than 10 uM are considered active; type: functional; details: read-out: AC50
Chain of Cytochrome P450 2C19 (P33261 whole entry): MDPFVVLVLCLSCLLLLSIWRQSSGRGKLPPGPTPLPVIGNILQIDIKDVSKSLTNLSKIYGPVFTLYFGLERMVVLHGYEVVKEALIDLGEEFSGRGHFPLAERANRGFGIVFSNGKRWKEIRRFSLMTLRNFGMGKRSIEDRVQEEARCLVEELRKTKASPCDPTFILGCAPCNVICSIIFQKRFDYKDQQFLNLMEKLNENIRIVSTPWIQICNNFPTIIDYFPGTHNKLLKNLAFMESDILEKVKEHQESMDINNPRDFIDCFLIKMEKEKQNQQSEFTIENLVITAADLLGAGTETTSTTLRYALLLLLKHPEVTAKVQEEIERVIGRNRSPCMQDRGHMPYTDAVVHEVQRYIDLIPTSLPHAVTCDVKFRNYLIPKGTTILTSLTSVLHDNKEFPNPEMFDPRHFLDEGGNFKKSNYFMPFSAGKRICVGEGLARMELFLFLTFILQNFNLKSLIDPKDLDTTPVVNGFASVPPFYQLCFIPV

Cytochrome P450 1A2 = biological target: T2, Cytochrome P450 1A2 (Homo sapiens, UniProt P05177);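 note: PubChem cytochrome P450 panel assay, CYP1A2 panel member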
T2 sequence (P05177 whole entry): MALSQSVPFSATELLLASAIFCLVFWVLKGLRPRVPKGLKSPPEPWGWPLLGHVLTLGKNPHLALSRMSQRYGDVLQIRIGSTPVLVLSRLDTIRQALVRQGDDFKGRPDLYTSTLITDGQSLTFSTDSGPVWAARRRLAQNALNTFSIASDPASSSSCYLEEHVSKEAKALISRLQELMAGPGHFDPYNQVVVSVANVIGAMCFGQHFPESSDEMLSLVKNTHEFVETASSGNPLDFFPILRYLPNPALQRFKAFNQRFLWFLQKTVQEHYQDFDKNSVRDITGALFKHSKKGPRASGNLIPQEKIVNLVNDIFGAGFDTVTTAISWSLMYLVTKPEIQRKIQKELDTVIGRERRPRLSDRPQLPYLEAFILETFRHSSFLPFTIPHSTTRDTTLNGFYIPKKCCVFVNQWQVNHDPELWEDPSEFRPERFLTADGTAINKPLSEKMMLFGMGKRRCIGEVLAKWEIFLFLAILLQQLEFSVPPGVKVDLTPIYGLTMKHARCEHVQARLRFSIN

Cytochrome P450 2C9 = Cytochrome P450 2C9 (Homo sapiens, UniProt P11712)
Chain of Cytochrome P450 2C9 (P11712 whole entry): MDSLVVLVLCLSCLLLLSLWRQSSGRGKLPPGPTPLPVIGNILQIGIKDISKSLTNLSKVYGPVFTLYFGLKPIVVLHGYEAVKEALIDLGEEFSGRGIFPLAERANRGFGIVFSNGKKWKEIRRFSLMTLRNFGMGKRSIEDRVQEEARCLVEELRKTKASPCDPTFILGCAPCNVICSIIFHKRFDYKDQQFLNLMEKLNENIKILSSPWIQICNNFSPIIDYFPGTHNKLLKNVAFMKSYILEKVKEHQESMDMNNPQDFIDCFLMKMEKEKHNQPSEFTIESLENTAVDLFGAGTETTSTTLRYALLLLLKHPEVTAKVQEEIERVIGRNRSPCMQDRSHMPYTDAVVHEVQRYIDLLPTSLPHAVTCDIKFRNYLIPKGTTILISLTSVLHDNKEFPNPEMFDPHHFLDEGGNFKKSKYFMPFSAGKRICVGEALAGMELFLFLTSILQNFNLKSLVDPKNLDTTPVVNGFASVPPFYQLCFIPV

Cytochrome P450 3A4 = Cytochrome P450 3A4 (Homo sapiens, UniProt P08684);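 note: CYP3A4 tested as one member of a cytochrome P450 panel screen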
Chain of Cytochrome P450 3A4 (P08684 whole entry): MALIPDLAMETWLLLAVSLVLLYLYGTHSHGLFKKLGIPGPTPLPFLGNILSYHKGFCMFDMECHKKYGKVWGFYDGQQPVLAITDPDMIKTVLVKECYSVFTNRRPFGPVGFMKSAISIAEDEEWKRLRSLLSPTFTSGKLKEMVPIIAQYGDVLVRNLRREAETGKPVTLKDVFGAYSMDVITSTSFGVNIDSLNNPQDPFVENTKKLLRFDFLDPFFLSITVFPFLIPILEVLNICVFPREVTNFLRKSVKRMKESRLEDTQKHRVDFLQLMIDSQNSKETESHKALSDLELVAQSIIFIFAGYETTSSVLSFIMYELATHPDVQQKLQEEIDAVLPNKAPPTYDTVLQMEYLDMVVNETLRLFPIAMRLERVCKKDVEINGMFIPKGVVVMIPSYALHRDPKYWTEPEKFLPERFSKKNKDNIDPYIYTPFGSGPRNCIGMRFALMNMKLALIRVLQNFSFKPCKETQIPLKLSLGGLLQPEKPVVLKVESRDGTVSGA

fMet-Leu-Phe receptor = fMet-Leu-Phe receptor (Homo sapiens, UniProt P21462); assay: FPR ligands, dose response (AID 519); type: functional
Chain of fMet-Leu-Phe receptor (P21462 whole entry): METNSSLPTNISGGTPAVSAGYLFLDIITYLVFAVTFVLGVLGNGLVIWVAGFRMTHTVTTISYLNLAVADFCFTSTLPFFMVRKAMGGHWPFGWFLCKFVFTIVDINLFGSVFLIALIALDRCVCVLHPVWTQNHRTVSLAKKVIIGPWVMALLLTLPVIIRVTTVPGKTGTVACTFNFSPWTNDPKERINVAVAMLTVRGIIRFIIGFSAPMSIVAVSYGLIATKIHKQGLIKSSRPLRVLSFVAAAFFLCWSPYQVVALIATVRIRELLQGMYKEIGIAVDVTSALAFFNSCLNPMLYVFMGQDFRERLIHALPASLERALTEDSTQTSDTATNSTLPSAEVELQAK

[5] = biological target: T3, Low molecular weight phosphotyrosine protein phosphatase (Homo sapiens, UniProt P24666); type: functional; details: read-out: IC50_Mean;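 note: Dose-response confirmation assay measuring inhibition of LMPTP enzyme activity by fluorescence intensity read-out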
T3 sequence (P24666 whole entry): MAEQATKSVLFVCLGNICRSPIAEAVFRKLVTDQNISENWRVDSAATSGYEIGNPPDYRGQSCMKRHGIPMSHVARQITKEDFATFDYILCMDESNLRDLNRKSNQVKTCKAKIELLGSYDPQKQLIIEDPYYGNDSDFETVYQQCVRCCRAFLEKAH

[6] = biological target: Nuclear receptor subfamily 5 group A member 2 (Homo sapiens, UniProt O00482); type: functional, cell-based;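 note: HEK293T cells transfected with LRH-1 and a StAR promoter luciferase reporter; potency for inhibitors that lower LRH-1 driven reporter light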
Chain of Nuclear receptor subfamily 5 group A member 2 (O00482 whole entry): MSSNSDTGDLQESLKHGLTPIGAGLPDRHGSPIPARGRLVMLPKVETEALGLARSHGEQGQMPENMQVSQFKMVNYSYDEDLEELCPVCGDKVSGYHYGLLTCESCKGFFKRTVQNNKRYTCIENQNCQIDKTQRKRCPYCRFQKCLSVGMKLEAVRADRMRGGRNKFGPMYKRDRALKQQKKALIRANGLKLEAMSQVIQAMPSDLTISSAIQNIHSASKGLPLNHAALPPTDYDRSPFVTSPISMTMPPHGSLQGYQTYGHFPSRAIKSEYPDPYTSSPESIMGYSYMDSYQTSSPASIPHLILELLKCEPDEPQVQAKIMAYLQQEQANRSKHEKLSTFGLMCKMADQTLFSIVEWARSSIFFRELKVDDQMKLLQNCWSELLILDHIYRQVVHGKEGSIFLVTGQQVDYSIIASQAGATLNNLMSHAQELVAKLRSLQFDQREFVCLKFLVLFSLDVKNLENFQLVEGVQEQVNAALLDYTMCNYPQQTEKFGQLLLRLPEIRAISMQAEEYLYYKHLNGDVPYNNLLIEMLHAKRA

Albumin = Albumin (Bos taurus, UniProt P02769); assay: Counterscreen for inhibitors of T-cell receptor (TCR)-CD3 interaction: Fluorescence-based biochemical high throughput dose response assay to identify inhibitors of T-cell receptor (TCR)-CD3 interaction using a TAMRA-labeled BSA probe.; type: functional
Chain of Albumin (P02769 whole entry, the tested form may be a part): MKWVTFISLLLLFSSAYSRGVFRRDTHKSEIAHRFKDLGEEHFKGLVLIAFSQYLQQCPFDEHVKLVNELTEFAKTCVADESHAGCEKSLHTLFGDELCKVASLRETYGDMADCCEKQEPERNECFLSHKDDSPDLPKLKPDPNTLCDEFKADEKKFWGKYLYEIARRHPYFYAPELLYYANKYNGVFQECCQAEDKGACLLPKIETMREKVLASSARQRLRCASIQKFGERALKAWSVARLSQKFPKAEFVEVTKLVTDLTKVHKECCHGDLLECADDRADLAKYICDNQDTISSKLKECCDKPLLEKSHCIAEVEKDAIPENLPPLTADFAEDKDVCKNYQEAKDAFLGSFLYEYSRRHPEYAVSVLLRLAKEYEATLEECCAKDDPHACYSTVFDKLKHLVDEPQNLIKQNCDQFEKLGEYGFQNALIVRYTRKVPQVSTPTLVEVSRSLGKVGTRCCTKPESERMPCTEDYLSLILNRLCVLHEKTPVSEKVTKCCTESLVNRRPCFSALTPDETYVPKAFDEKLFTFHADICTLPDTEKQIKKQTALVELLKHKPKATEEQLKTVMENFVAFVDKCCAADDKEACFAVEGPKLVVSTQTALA

[7] = biological target: T4, Carboxy-terminal domain RNA polymerase II polypeptide A small phosphatase 1 (Homo sapiens, UniProt Q9GZU7); assay: inhibitors of CTDSP1, concentration-response testing, biochemical assay, absorbance-based, actives from ultra-high-throughput screening (AID 540297); type: functional
T4 sequence (Q9GZU7 whole entry): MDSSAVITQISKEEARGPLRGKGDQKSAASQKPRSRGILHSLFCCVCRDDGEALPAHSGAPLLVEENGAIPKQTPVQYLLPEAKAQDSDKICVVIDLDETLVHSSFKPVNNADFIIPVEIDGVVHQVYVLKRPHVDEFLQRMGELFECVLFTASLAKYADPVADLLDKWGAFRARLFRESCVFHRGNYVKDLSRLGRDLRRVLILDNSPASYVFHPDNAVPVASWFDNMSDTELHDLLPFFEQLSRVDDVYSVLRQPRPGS

Steroidogenic factor 1 = Steroidogenic factor 1 (Homo sapiens, UniProt Q13285); assay: Counterscreen for inverse agonists of the liver receptor homolog-1 (LRH-1; NR5A2): Luminescence-based cell-based high throughput dose response assay to identify inverse agonists of the Steroidogenic Factor 1 Nuclear Receptor (SF1; NR5A1).; type: functional
Chain of Steroidogenic factor 1 (Q13285 whole entry, the tested form may be a part): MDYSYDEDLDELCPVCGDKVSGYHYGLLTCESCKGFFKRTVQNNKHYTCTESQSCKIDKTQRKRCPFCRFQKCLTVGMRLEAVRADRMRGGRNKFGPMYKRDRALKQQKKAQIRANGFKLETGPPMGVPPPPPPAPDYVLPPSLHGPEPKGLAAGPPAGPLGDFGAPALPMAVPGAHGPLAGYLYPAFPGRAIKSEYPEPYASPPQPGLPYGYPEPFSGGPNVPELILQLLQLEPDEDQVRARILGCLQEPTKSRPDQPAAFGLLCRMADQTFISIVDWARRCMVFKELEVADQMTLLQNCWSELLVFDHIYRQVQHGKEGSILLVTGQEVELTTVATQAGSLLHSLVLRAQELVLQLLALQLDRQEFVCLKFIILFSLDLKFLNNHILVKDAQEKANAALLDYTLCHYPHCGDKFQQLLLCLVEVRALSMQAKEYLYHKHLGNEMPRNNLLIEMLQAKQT

[8] = biological target: T5, Oxysterols receptor LXR-beta (Homo sapiens, UniProt P55055); type: functional, cell-based;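 note: agonist activity at LXR measured by a cell-based luminescence readout across a dose range, run as a counterscreen for daf-12 agonists; HEK293 cells with Gal4-LXR fusion and GAL4-driven luciferase reporter; potency for activation of Gal4-LXR reporter so compounds are agonists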
T5 sequence (P55055 whole entry): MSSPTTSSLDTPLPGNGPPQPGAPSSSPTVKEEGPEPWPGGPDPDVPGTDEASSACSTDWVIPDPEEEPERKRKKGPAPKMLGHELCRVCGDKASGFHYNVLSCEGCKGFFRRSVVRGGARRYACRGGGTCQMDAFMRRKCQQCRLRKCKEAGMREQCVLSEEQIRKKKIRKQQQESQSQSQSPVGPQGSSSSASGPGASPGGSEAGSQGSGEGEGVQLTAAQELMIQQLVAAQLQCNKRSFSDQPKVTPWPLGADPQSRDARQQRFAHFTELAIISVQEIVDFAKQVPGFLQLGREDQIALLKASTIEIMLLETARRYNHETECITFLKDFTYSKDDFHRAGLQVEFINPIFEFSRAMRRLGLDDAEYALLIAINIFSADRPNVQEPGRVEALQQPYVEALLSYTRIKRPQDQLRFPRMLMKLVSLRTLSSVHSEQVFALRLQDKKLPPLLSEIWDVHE

[9] = biological target: T6, DNA repair protein RAD52 homolog (Homo sapiens, UniProt P43351); type: functional, biochemical
T6 sequence (P43351 whole entry): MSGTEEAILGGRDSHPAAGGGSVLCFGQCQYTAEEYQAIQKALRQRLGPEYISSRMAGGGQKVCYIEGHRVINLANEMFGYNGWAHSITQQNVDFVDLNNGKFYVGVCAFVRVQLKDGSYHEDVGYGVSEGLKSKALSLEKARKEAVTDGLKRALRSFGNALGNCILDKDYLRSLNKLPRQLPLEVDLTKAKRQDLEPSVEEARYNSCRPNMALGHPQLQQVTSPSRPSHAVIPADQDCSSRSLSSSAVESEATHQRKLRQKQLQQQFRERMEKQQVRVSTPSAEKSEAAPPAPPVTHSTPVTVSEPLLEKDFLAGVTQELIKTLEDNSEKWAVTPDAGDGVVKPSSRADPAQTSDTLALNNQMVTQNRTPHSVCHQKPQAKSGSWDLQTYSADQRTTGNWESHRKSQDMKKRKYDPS

[10] = biological target: T7, DNA repair and recombination protein RAD54-like (Homo sapiens, UniProt Q92698); assay: inhibitors of human RAD54 branch migration, confirmation, biochemical, fluorescence, cherry-picked samples, dose series (AID 651657); type: functional
T7 sequence (Q92698 whole entry): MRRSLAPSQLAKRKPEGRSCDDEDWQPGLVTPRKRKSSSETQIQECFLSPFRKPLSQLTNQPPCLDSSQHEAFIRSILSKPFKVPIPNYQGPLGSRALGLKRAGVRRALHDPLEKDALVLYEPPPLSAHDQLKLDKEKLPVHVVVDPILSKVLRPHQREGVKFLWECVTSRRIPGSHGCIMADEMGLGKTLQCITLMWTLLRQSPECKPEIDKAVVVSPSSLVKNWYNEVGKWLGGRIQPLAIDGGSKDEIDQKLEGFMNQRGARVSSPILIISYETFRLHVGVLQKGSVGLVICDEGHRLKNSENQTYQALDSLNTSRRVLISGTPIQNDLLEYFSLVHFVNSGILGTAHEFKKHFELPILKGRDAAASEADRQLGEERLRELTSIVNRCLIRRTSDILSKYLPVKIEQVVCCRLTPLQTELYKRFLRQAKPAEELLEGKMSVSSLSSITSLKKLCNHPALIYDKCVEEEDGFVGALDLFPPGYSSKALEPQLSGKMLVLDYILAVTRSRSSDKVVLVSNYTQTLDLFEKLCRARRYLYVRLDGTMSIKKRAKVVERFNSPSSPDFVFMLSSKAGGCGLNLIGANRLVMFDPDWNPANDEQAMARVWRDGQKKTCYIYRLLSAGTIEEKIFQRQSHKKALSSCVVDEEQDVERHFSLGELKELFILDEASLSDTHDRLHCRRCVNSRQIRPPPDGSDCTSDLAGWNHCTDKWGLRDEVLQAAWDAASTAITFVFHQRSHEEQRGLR

cells [11] = type: functional, cell-based
[12] = biological target: T8, Trace amine-associated receptor 1 (Homo sapiens, UniProt Q96RJ0); assay: Counterscreen for agonists of the human trace amine associated receptor 1 (hTAAR1): Fluorescence-based cell-based high throughput dose response assay to identify hTAAR1 agonist that also desensitize TAAR1 receptor response.; type: functional
T8 sequence (Q96RJ0 whole entry): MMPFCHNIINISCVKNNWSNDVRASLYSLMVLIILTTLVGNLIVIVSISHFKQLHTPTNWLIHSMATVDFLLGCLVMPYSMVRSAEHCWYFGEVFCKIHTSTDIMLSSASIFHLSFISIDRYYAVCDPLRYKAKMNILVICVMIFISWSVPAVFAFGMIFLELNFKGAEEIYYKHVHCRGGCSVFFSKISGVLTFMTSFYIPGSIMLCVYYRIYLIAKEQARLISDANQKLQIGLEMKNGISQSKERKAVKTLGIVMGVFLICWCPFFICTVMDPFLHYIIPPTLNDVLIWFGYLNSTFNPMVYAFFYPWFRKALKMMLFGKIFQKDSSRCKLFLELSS

[13] = biological target: T8, Trace amine-associated receptor 1; assay: Fluorescence-based cell-based high throughput dose response assay to identify agonists of the human trace amine associated receptor 1 (TAAR1).; type: functional
cells [14] = type: functional, cell-based; remark: listed apart in the source
[15] = CEM21 lymphoblast cell cytotoxicity, dose response, cytotoxicity control for viral fusion inhibitor project, CellTiter-Glo luminescence, cherry-picked (AID 652042); type: functional, cell-based;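 note: potency for signal decrease meaning cytotoxicity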
[16] = inhibitors of HIV Env-driven cell fusion, dose response, cherry-pick (AID 652057); type: functional, cell-based
[17] = T. cruzi growth inhibition in host cells, dose response, cell-based, plate reader, dry powder, set 2 (AID 652275); type: functional
[18] = MITF Orthogonal Assay: SK-MEL-5 CTG Assay Measured in Cell-Based System Using Plate Reader - 2084-02_Inhibitor_Dose_DryPowder_Activity_Set7.; type: functional
[19] = MITF: Counter assay: A375 proliferation Measured in Cell-Based System Using Plate Reader - 2084-03_Inhibitor_Dose_DryPowder_Activity_Set8.; type: functional; details: A-375

Compound: CCOc1ccc(C(CCc2ccccc2)NC(=O)c2ccccc2F)cc1OCC (stereo not drawn)
AC50 [1]: 4.56 µM (active)

IC50 [2]: 100 µM (inactive)
AC50 [3]: 0.42 µM (active)
IC50 [4]: 34 µM (active)
Compound: O=C(Nc1ccc(N2CCCCCC2)cc1)c1ccc[nH]1

AC50 (Cytochrome P450 2C19): 14.1 µM (inconclusive)
AC50 (Cytochrome P450 1A2): 17.8 µM (inconclusive)
AC50 (Cytochrome P450 2C9): 25.1 µM (inconclusive)
AC50 (Cytochrome P450 3A4): 25.1 µM (inconclusive)
Ki (fMet-Leu-Phe receptor): 27 µM (inactive)
Compound: COc1cc(C2C(C(=O)c3cccs3)=C(O)C(=O)N2Cc2ccco2)cc(OC)c1OC (stereo not drawn)

IC50 [5]: 26 µM (inactive)
IC50 [6]: 20.2 µM (inactive)
IC50 (Albumin): > 94.1 µM (inactive)
IC50 [7]: 4.21 µM (active)
IC50 (Steroidogenic factor 1): 13 µM (inactive)
Compound: COc1ccc(NC(=O)CSc2sc3c(O)cc(=O)[nH]c3c2C#N)c(OC)c1

Ki (fMet-Leu-Phe receptor): > 66.7 µM (inactive)
Compound: Cc1c(CNCc2cccs2)c(C(=O)O)c(C)n1Cc1ccccc1

EC50 [8]: > 67.5 µM (inactive)
AC50 [9]: 5.46 µM (active)
AC50 [10]: 7.73 µM (active)
Compound: COc1ccc2oc3cc(NCCN(C)C)ccc3c(=O)c2c1

Compound: O=C(CC1CCCC1)N[C@H](C(=O)N1CCC[C@H]1C(=O)NCCc1ccccc1Cl)c1ccccc1
EC50 (cells [11]): > 29.9 µM (inactive)
IC50 [12]: 6.57 µM (active)
EC50 [13]: 2.2 µM (active)
IC50 (cells [14]): > 29.9 µM (inactive)

Compound: COc1ccc2c3c([nH]c2c1)[C@H](CO)N(C(=O)Nc1cccc(F)c1)CC31CCN(S(=O)(=O)c2ccccc2)CC1
AC50 [15]: 19.4 µM (active)
AC50 [16]: 25.4 µM (active)

Compound: CC(C)N1CC2(CN(Cc3ccccn3)C2)Oc2c(NC(=O)c3ccncc3)cccc2C1=O
AC50 [17]: 1.37 µM (active)

Compound: O=C1C=C(NC2CCCCC2)C(=O)c2ccccc21
AC50 [18]: 18.9 µM (active)
AC50 [19]: > 70 µM (inactive)

Compound: COCCNC(=O)c1cc2c(c(-c3cccc(C#CCN(C)C)c3)n1)[C@@H](CCO)N([S+]([O-])C(C)(C)C)C2 (stereo partly drawn)
AC50 [17]: 4.21 µM (active)
